# Reference: patent US20250214951A1, “3-PHENYLISOXAZOLE DERIVATIVE, AND PHARMACEUTICAL COMPOSITION FOR PREVENTING OR TREATING EYE DISEASE, CONTAINING SAME AS ACTIVE INGREDIENT” (VASTHERA CO., LTD., priority 2022, published 2025)
# Experiments:
# LC3-II (autophagy flux) = assay: Autophagy flux in A2E-accumulated ARPE-19 with or without bafilomycin; format: cell-based, human; conditions: A2E 25 μM 24 h; 10, 25, 50 μM, 12 h; bafilomycin 2 nM 4 h; FIG. 9
# Procedure: It was measured whether example 17 compound of the present invention increases autophagy flux in the ARPE-19 cell line in which A2E is accumulated. That is, the ARPE-19 cell line was dispensed into a 6-well plate at a concentration of 1×10^5 cells/well and cultured for 24 hours. The cells were treated with A2E at a concentration of 25 μM for 24 hours. The cells were treated with example 17 compound of the present invention at concentrations of 10, 25, and 50 μM for 12 hours each. The method of treating with bafilomycin (2 nM for 4 hours), preparing cell lysate, and measuring LC3-II by Western method was the same as in Experimental Example 8.
# [1] = tested on: p62 protein phosphorylated at serine 349 (p-p62 (S349)); assay: Autophagy activation by increase of p-p62 (S349), Western immunoblotting; format: cell-based, human; conditions: indicated concentrations; FIG. 14
# Procedure: The cells were treated with the test compounds at the indicated concentrations, and the autophagy activation effect through the increase of p62 protein (p-p62 (S349)) phosphorylated at serine 349 residue was measured by Western immunoblotting using an anti-p-p62 antibody, and the results are shown in FIG. 14. The increase in the intracellular P-p62 ([…]) level is one of the major indicators of autophagy activation.
# LC3-II = assay: Autophagy activation in ARPE-19 (LC3-II Western, GFP-LC3 puncta); format: cell-based, human; conditions: 12 h
# Procedure: ARPE-19 was dispensed into a 6-well plate at a concentration of 1×10^5 cells/well and cultured for 24 hours. Then, cells were treated with example 17 compound of the present invention at concentrations of 10, 25, and 50 μM for 12 hours. Then, a cell lysis buffer containing a protease inhibitor was added to prepare a cell lysate. The LC3-II level was measured by Western immunoblotting using an anti-LC3-II antibody (Cell Signaling Technology, MA, USA). As an internal control, an antibody against β-actin (Cell Signaling Technology) was used and measured by Western immunoblotting in the same manner as above, and is shown in FIG. 6 (upper graph).
# Meanwhile, intracellular autophagosome formation was observed as follows. The ARPE-19 cells were transfected with a plasmid expressing GFP-LC3 (Addgene Inc., MA, USA) using Lipofectamine™ 2000 reagent (Invitrogen, Carlsbad, CA, USA). After 48 hours of culture, the cells were treated with example 17 compound of the present invention at a concentration of 25 μM. After additional 12 hours of culture, the cells were fixed using 4% paraformaldehyde for 10 minutes. The cells were then washed three times with PBS every 5 minutes. Finally, the puncta formation of GFP-LC3 was observed using a confocal laser scanning microscope (Nikon, Tokyo, Japan). […]
# [2] = tested on: A2E-BDP present in human retinal pigment epithelial cells (ARPE-19); assay: Screening of ability to remove A2E-fluorescent labeling substance (A2E-BDP), lysate fluorescence; format: cell-based; conditions: ARPE-19, 24 h, ARPE-19 loaded with 10 μM A2E-BDP 24 h, test compound 50 μM once, fluorescence ex 485/em 535 nm, read-out: Capacity (%) to remove A2E-BDP at 50 μM
# Procedure: The human retinal pigment epithelial cell line (ARPE-19) used in the experiment was provided by ATCC (American Type Culture Collection). The ARPE-19 cell line was cultured in DMEM medium containing 10% FBS. After culture, the cells were dispensed into 96-well plates at a concentration of 4×10^3 cells/well and cultured for 24 hours. The ARPE-19 cell line was treated with A2E-fluorescent labeling substance (A2E-BDP) at a concentration of 10 μM for 24 hours to induce the accumulation of A2E-BDP in the ARPE-19 cell line.
# In order to evaluate the intracellular A2E removal ability of the compound of the present invention, an easily detectable A2E-fluorescent labeling substance (A2E-BDP) was used. The ARPE-19 cells prepared by the above method were treated with each test compound at a concentration of 50 μM once, and then cultured for 24 hours. The cells were lysed by adding a cell lysis buffer containing a protease inhibitor (50 mM Tris-chloride, pH 8.0, 150 mM sodium chloride, 1% NP-40, 1% sodium deoxycholate, 1% sodium dodecyl sulfate, and 2 mM ethylenediamine tetraacetic acid) to each 96-well. The prepared cell lysate was transferred to a white 96-well plate, and the fluorescence intensity was measured using a fluorescence microplate reader (VICTOR™ X3, Perkin Elmer, USA) (excitation 485 nm, emission 535 nm).
# A2E-BDP in ARPE-19 cells = assay: Removal of A2E-BDP by concentration, fluorescence and phase contrast microscopy; format: cell-based, human
# Procedure: ARPE-19 cell line was dispensed into a 24-well plate at a concentration of 4×10^4 cells/well and cultured for 24 hours. In order to induce A2E-BDP accumulation in ARPE-19 cell line, the cells were treated with […] of 10 μM for 24 hours. The A2E-BDP-containing ARPE-19 cells were treated with compound 17 (10, 25, 50 μM) for 24 hours. The level of A2E-BDP in each cell was measured as a fluorescence image at 510 nm using a Nikon Eclipse Ti—U fluorescence microscope (Tokyo, Japan). In addition, the change in cell number according to compound treatment was observed using a general phase contrast microscope, and the results are shown in FIG. 1. Meanwhile, lutein was used as a control substance.
smiles,measurement,setting,value
"C=CCOCc1cc(-c2cc(CC=C)ccc2OC)no1 [Example 17, 3-(5-allyl-2-methoxyphenyl)-5-((allyloxy)methyl)isoxazole]",autophagy flux in A2E-accumulated ARPE-19,LC3-II (autophagy flux),significantly increased the autophagy flux
same,autophagy activation through increase of p-p62 (S349),[1],activated autophagy in a concentration-dependent manner
same,LC3-II level (Western immunoblotting),"LC3-II; ARPE-19, 10, 25, 50 μM, FIG. 6 graph",an increase in LC3-II
same,puncta formation of GFP-LC3 (confocal microscope),"LC3-II; GFP-LC3 transfected ARPE-19, 25 μM, FIG. 6 photograph",intracellular LC3-II puncta were observed
same,inhibition at 50 µM,[2],≥ 60%
same,"cytotoxicity against ARPE-19 cells (cell number, phase contrast microscope)","A2E-BDP in ARPE-19 cells; 10, 25, 50 μM, 24 h",no cytotoxicity
same,A2E-BDP fluorescence intensity (fluorescence microscope),"A2E-BDP in ARPE-19 cells; ARPE-19 with A2E-BDP, 10, 25, 50 μM, 24 h, FIG. 1",a decrease in fluorescence intensity was observed in a concentration-dependent manner
same,A2E-BDP removal ability compared with lutein,A2E-BDP in ARPE-19 cells; FIG. 1,better A2E-BDP removal ability than lutein
